Measurements: US9187471B2, “Pyrido [4,3-b] indole and pyrido [3,4-b] indole derivatives and methods of use” (Medivation Technologies, Inc., priority 2010, dated 2015)

What was measured:
[1] = target: T1, human recombinant histamine H1 receptor (Homo sapiens, UniProt P35367); assay: Histamine H1 radioligand binding ([3H]Pyrilamine); conditions: read-out: Histamine H1 Binding (1 μM), percent inhibition of specific binding; compound at 1 μM; 1.2 nM [3H]Pyrilamine
T1 construct: expressed in transfected cells; host or cells: CHO-K1
Outline: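 Results expressed as percent inhibition of specific [3H]pyrilamine binding, counted on filters after washing. Receptor source: CHO-K1 cells expressing recombinant human H1, in modified Tris-HCl buffer (50 mM, pH 7.4; 2 mM MgCl2, 100 mM NaCl, 250 mM sucrose). 1 μM pyrilamine defined non-specific binding.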

[2] = target: T2, human recombinant adrenergic α2C receptor (Homo sapiens, UniProt P18825); assay: Adrenergic α2C radioligand binding ([3H]MK-912); conditions: read-out: Adrenergic (0.1 μM) a2C, percent inhibition of specific binding; compound at 0.1 μM; 1 nM [3H]MK-912
T2 construct: expressed in transfected cells; host or cells: insect Sf9 cells
T2 sequence (P18825 1-462): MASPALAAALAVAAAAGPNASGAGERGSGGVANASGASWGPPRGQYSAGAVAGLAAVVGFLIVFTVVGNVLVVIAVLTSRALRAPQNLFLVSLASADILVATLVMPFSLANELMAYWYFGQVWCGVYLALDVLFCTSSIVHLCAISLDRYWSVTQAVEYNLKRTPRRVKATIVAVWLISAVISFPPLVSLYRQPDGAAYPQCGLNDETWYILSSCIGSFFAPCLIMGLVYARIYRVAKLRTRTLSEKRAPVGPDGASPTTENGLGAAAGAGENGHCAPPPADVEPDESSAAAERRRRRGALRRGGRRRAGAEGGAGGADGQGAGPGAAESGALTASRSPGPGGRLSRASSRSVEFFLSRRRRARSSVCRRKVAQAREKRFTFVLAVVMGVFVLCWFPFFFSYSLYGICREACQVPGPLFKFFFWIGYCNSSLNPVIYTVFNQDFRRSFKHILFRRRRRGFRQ
Outline: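 Membranes from Sf9 cells expressing the human receptor, in 50 mM Tris-HCl pH 7.4 with 12.5 mM MgCl2 and 2 mM EDTA, incubated with compound and 1 nM [3H]MK-912 for 60 min at 25 °C. Non-specific binding defined with 10 μM WB-4101. Filter-bound radioactivity counted; percent inhibition of specific binding reported.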

[3] = target: T3, human recombinant dopamine D2L receptor (Homo sapiens, UniProt P14416); assay: Dopamine D2L radioligand binding ([3H]Spiperone); conditions: read-out: Dopamine D2L (1 μM), percent inhibition of specific binding; compound at 1 μM; 0.16 nM [3H]Spiperone
T3 construct: expressed in transfected cells; host or cells: CHO
Procedure: Non-specific binding was estimated in the presence of 10 μM Haloperidol. Receptor proteins were filtered and washed, the filters were then counted to determine [^3H]Spiperone specifically bound.

[4] = target: T4, human recombinant serotonin (5-Hydroxytryptamine) 5-HT2C receptor (Homo sapiens, UniProt P28335); assay: Serotonin 5-HT2C radioligand binding ([3H]Mesulergine); conditions: compound at 0.1 μM; read-out: Inhibition of ligand binding, Serotonin 5-HT2C (percent inhibition of specific binding)
T4 construct: expressed in transfected cells; host or cells: CHO-K1
T4 sequence (P28335 33-458): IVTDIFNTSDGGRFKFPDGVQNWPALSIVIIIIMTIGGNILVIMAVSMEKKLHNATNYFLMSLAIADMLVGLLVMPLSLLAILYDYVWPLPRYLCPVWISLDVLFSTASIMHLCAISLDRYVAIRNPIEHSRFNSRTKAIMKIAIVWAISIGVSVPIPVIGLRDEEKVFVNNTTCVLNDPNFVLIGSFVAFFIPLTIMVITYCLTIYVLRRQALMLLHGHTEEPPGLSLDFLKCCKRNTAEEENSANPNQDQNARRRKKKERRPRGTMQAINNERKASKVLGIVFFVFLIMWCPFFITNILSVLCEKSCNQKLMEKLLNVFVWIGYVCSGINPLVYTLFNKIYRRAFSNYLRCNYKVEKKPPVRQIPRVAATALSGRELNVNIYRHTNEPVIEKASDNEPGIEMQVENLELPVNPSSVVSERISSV
Procedure: Compounds of the invention were incubated with 1 nM [^3H]Mesulergine for 60 min at 25° C. Non-specific binding was estimated in the presence of 1 μM Mianserin. Receptor proteins were filtered and washed, the filters were then counted to determine [^3H]Mesulergine specifically bound.

[5] = target: T5, human recombinant serotonin (5-Hydroxytryptamine) 5-HT5A receptor (Homo sapiens, UniProt P47898); assay: Serotonin 5-HT5A radioligand binding ([3H]LSD); conditions: compound at 0.1 μM; read-out: Inhibition of ligand binding, Serotonin 5-HT5A (percent inhibition of specific binding)
T5 construct: expressed in transfected cells; host or cells: CHO-K1
Procedure: Compounds of the invention were incubated with 1.7 nM [^3H]Lysergic acid diethylamide (LSD) for 60 min at 37° C. […] Receptor proteins were filtered and washed, the filters were counted to determine [^3H]LSD specifically bound.

[6] = target: T6, human recombinant serotonin (5-Hydroxytryptamine) 5-HT6 receptor (Homo sapiens, UniProt P50406); assay: Serotonin 5-HT6 radioligand binding ([3H]LSD); conditions: compound at 0.1 μM; read-out: Inhibition of ligand binding, Serotonin 5-HT6 (percent inhibition of specific binding)
T6 construct: expressed in transfected cells; host or cells: HeLa
Source text: Receptor proteins were filtered and washed, the filters were then counted to determine [3H]LSD specifically bound.

T1 sequence (P35367 whole entry): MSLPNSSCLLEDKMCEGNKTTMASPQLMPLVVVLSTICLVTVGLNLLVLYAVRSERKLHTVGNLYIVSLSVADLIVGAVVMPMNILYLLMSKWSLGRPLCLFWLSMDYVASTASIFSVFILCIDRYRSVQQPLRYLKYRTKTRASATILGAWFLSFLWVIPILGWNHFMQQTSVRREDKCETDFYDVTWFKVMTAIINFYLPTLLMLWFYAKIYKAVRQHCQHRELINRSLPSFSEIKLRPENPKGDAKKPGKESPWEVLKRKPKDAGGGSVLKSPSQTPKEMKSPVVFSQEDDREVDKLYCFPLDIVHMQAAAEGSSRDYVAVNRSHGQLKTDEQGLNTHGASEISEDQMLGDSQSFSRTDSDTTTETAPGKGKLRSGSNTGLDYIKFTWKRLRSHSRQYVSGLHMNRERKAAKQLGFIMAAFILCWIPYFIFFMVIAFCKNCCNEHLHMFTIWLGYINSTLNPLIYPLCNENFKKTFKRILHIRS
T5 sequence (P47898 whole entry): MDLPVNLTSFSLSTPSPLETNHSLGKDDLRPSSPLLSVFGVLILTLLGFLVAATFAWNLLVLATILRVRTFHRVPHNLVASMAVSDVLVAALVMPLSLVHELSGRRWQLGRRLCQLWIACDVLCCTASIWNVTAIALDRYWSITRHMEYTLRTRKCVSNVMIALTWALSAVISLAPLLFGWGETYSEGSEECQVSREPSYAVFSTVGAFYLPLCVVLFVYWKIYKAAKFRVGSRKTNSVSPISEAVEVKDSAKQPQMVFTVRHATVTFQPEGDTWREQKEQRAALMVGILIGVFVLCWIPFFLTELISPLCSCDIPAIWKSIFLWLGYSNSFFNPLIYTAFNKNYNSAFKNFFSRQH
T6 sequence (P50406 whole entry): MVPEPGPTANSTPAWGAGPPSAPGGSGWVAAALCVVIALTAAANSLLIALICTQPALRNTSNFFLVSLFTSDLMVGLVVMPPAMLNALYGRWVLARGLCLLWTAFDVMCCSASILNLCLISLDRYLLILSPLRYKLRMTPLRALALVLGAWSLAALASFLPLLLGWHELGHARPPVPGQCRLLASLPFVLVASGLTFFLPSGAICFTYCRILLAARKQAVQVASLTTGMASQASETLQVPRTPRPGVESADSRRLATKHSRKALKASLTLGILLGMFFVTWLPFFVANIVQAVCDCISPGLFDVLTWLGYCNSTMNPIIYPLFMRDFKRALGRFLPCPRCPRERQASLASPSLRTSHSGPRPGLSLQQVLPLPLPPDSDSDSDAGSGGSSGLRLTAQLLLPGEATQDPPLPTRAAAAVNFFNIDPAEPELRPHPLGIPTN
T3 sequence (P14416 whole entry): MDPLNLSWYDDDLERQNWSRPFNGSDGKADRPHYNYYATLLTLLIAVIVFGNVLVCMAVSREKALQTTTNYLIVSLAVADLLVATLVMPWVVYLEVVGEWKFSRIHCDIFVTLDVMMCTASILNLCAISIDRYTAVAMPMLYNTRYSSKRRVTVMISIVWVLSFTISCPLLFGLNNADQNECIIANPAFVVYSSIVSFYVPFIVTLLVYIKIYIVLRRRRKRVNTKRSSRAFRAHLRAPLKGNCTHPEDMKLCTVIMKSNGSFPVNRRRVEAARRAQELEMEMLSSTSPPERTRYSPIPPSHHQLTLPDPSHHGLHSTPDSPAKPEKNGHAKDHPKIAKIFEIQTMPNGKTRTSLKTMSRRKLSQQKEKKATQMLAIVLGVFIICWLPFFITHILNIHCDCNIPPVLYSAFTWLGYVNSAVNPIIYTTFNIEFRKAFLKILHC

Row | SMILES | inhibition at 1 µM [1] [%] | inhibition at 0.1 µM [2] [%] | inhibition at 1 µM [3] [%] | inhibition at 0.1 µM [4] [%] | inhibition at 0.1 µM [5] [%] | inhibition at 0.1 µM [6] [%]
1 | Cc1ccc2c(c1)c1c(n2-c2ccccc2-c2cnn(C)c2)CCN(C)C1 [Compound No. 86, 2,8-dimethyl-5-(2-(1-methyl-1H-pyrazol-4-yl)phenyl)-2,3,4,5-tetrahydro-1H-pyrido[4,3-b]indole] | 47 | 0 | 6 | 71 | 37 | 11
2 | Cc1ccc2c(c1)c1c(n2-c2ccccc2-c2cccn2C)CCN(C)C1 [Compound No. 100, 2,8-dimethyl-5-(2-(1-methyl-1H-pyrrol-2-yl)phenyl)-2,3,4,5-tetrahydro-1H-pyrido[4,3-b]indole] | 36 | 66 | 11 | 72 | 11 | 26
3 | Cc1ccc2c(c1)c1c(n2-c2ccccc2-c2cc3ccccc3s2)CCN(C)C1 [Compound No. 103, 5-(2-(benzo[b]thiophen-2-yl)phenyl)-2,8-dimethyl-2,3,4,5-tetrahydro-1H-pyrido[4,3-b]indole] | 10 | 69 | 10 | 43 | 42 | 20
4 | Cc1ccc2c(c1)c1c(n2-c2ccccc2-c2cccc3[nH]ncc23)CCN(C)C1 [Compound No. 105, 5-(2-(1H-indazol-4-yl)phenyl)-2,8-dimethyl-2,3,4,5-tetrahydro-1H-pyrido[4,3-b]indole] | 34 | 45 | 3 | 82 | 56 | 40
5 | Cc1ccc2c(c1)c1c(n2-c2cnc3ccccc3c2)CCN(C)C1 [Compound No. 88, 2,8-dimethyl-5-quinolin-3-yl-2,3,4,5-tetrahydro-1H-pyrido[4,3-b]indole] | 18 | 4 | 7 | 90 | 22 | 4
6 | Cc1ccc2c(c1)c1c(n2-c2ccccc2-c2cncc3ccccc23)CCN(C)C1 [Compound No. 87, 5-(2-(isoquinolin-4-yl)phenyl)-2,8-dimethyl-2,3,4,5-tetrahydro-1H-pyrido[4,3-b]indole] | 47 | -6 | 10 | 66 | 24 | 13
7 | Cc1ccc2c(c1)c1c(n2-c2ccccc2-c2cn[nH]c2)CCN(C)C1 [Compound No. 104, 5-(2-(1H-pyrazol-4-yl)phenyl)-2,8-dimethyl-2,3,4,5-tetrahydro-1H-pyrido[4,3-b]indole] | 24 | 1 | -1 | 77 | 20 | 10
8 | Cc1ccc2c(c1)c1c(n2-c2ccccc2-c2sccc2C)CCN(C)C1 [Compound No. 102, 2,8-dimethyl-5-(2-(3-methylthiophen-2-yl)phenyl)-2,3,4,5-tetrahydro-1H-pyrido[4,3-b]indole] | 57 | 43 | 48 | 90 | 10 | 42
